From PubChem BioAssay AID294 (DTP/NCI, 2004)
“And” between values parts separate entries of the source, which are not always exact repeats. Identical values can stand only once.

System: MX-1 breast xenograft, nude mice, tumor weight change
Test: NCI In Vivo Anticancer Drug Screen. Data for tumor model Human Mammary Carcinoma MX-1 Xenograft (subcutaneous) in NU/NU Swiss (nude) mice
Conditions: endpoint: optimum tumor weight change, higher = larger tumour
Protocol: The antitumor activity of compounds was measured in mice bearing transplantable tumors. Survival or tumor size were measured and the results are expressed as the measurement made in the treated group (T) divided by the measurement made in the vehicle treated control group (C). The tumor model used in this assay is Human Mammary Carcinoma MX-1 Xenograft (subcutaneous) in NU/NU Swiss (nude) mice

[1] = dose: 5.0 mg/kg/injection, schedule: Q04DX003 (ip), vehicle: Klucel (hydroxypropylcellulose) (HPC)
[2] = dose: 10.0 mg/kg/injection, schedule: Q04DX003 (ip), vehicle: Klucel (hydroxypropylcellulose) (HPC)
[3] = dose: 400.0 mg/kg/injection, schedule: Q04DX003 (ip), vehicle: saline with Tween-80
[4] = dose: 800.0 mg/kg/injection, schedule: Q04DX003 (ip), vehicle: saline with Tween-80
[5] = dose: 1600.0 mg/kg/injection, schedule: Q04DX003 (ip), vehicle: saline with Tween-80
[6] = dose: 12.5 mg/kg/injection, schedule: Q04DX003 (ip), vehicle: saline
[7] = dose: 25.0 mg/kg/injection, schedule: Q04DX003 (ip), vehicle: saline
[8] = dose: 100.0 mg/kg/injection, schedule: Q04DX003 (ip), vehicle: saline with Tween-80
[9] = dose: 50.0 mg/kg/injection, schedule: Q04DX003 (ip), vehicle: Klucel (hydroxypropylcellulose) (HPC)
[10] = dose: 100.0 mg/kg/injection, schedule: Q04DX003 (ip), vehicle: Klucel (hydroxypropylcellulose) (HPC)
[11] = dose: 100.0 mg/kg/injection, schedule: Q04DX003 (ip), vehicle: saline
[12] = dose: 200.0 mg/kg/injection, schedule: Q04DX003 (ip), vehicle: saline
[13] = dose: 400.0 mg/kg/injection, schedule: Q04DX003 (ip), vehicle: saline
[14] = dose: 0.25 mg/kg/injection, schedule: Q04DX003 (ip), vehicle: water
[15] = dose: 0.5 mg/kg/injection, schedule: Q04DX003 (ip), vehicle: water

COC1C(C)OC(OC2CC(C)(O)Cc3cc4c(c(O)c32)C(=O)c2c(O)cc3c(c2C4=O)OC2OC3(C)C(O)C(N(C)C)C2O)C(OC)C1(C)OC (configuration not stated)
T/C [1]: 204 % of control
T/C [2]: 207 % of control

N/C(=N\O)c1cn(C2OC(CO)C(O)C2O)c2ncnc(N)c12 (configuration not stated)
T/C [1]: 109 % of control
T/C [2]: 80 % of control
T/C (dose: 20.0 mg/kg/injection, schedule: Q04DX003 (ip), vehicle: Klucel (hydroxypropylcellulose) (HPC)): 82 % of control

CC[C@](O)(C(=O)O)c1cc2n(c(=O)c1CO)Cc1cc3ccccc3nc1-2
T/C (dose: 4.5 mg/kg/injection, schedule: Q04DX003 (ip), vehicle: saline): 122 % of control
T/C (dose: 9.0 mg/kg/injection, schedule: Q04DX003 (ip), vehicle: saline): 97 % of control
T/C (dose: 16.0 mg/kg/injection, schedule: Q04DX003 (ip), vehicle: saline): 44 % of control
T/C (dose: 18.0 mg/kg/injection, schedule: Q04DX003 (ip), vehicle: saline): 59 % of control
T/C (dose: 36.0 mg/kg/injection, schedule: Q04DX003 (ip), vehicle: saline): 70 % of control

Nc1ccc(Cl)cc1N
T/C [3]: 109 % of control
T/C [4]: 110 % of control
T/C [5]: 117 % of control
T/C (dose: 3200.0 mg/kg/injection, schedule: Q04DX003 (ip), vehicle: saline with Tween-80): 80 % of control

CN(CO)c1nc(N(C)CO)nc(N(C)CO)n1
T/C (dose: 25.0 mg/kg/injection, schedule: Q01DX005 (ip), vehicle: saline): 3 % of control and 16 % of control
T/C (dose: 25.0 mg/kg/injection, schedule: Q04DX005 (ip), vehicle: saline): 45 % of control and 58 % of control
T/C (dose: 50.0 mg/kg/injection, schedule: Q01DX005 (ip), vehicle: saline): -7 % of control and 4 % of control
T/C (dose: 100.0 mg/kg/injection, schedule: Q01DX005 (ip), vehicle: saline): -97 % of control and -91 % of control
T/C (dose: 100.0 mg/kg/injection, schedule: Q07DX005 (ip), vehicle: saline): 24 % of control and 28 % of control
T/C (dose: 200.0 mg/kg/injection, schedule: Q01DX005 (ip), vehicle: saline): -94 % of control
T/C (dose: 200.0 mg/kg/injection, schedule: Q04DX005 (ip), vehicle: saline): -87 % of control and -82 % of control
T/C (dose: 200.0 mg/kg/injection, schedule: Q07DX005 (ip), vehicle: saline): -96 % of control

C1OC1CN1CCN(CC2CO2)CC1 (configuration not stated)
T/C [6]: 91 % of control
T/C [7]: 79 % of control

ClCC[N+]12CC[N+](CCCl)(CC1)C2
T/C [8]: 60 % of control
T/C (dose: 200.0 mg/kg/injection, schedule: Q04DX003 (ip), vehicle: saline with Tween-80): 56 % of control
T/C (dose: 200.0 mg/kg/injection, schedule: Q04DX003 (ip), vehicle: water): 51 % of control
T/C [3]: 59 % of control
T/C (dose: 400.0 mg/kg/injection, schedule: Q04DX003 (ip), vehicle: water): 53 % of control
T/C [4]: 31 % of control
T/C [5]: 28 % of control

COc1cc([C@@H]2c3cc4c(c(O)c3C[C@H]3COC(=O)[C@@H]32)OCO4)cc(OC)c1O
T/C (dose: 3.13 mg/kg/injection, schedule: Q04DX003 (ip), vehicle: saline): 92 % of control
T/C (dose: 6.25 mg/kg/injection, schedule: Q04DX003 (ip), vehicle: saline): 57 % of control

CNC(=O)ON(C(C)=O)C(=O)NC
T/C [6]: 81 % of control
T/C [7]: 108 % of control

COC(OC(CO)C(O)S(=O)(=O)O)C(O)S(=O)(=O)O (configuration not stated)
T/C (dose: 25.0 mg/kg/injection, schedule: Q04DX003 (ip), vehicle: Klucel (hydroxypropylcellulose) (HPC)): 83 % of control
T/C [9]: 80 % of control
T/C [10]: 62 % of control
T/C [11]: 63 % of control
T/C [12]: 74 % of control
T/C [13]: 68 % of control
T/C (dose: 800.0 mg/kg/injection, schedule: Q04DX003 (ip), vehicle: saline): 47 % of control

O=P1(NCCCl)OCCCN1CCCl (configuration not stated)
T/C [7]: 57 % of control
T/C (dose: 50.0 mg/kg/injection, schedule: Q04DX003 (ip), vehicle: saline): 56 % of control

O=C(NO)c1ccccc1
T/C (dose: 25.0 mg/kg/injection, schedule: Q01DX003 (ip), vehicle: saline): 82 % of control
T/C (dose: 50.0 mg/kg/injection, schedule: Q01DX003 (ip), vehicle: saline): 108 % of control
T/C (dose: 100.0 mg/kg/injection, schedule: Q01DX003 (ip), vehicle: saline): 42 % of control

CC1OC(OC2CC(O)(C(=O)CO)Cc3c(O)c4c(c(O)c32)C(=O)c2ccccc2C4=O)CC(N)C1O (configuration not stated)
T/C [14]: 104 % of control
T/C [15]: 104 % of control

CN(N=O)C(=O)N[C@@H](C=O)[C@@H](O)[C@H](O)[C@H](O)CO
T/C [11]: 58 % of control
T/C [12]: 80 % of control

O=NN(CCCl)C(=O)NC1CCCCC1
T/C (dose: 12.5 mg/kg/injection, schedule: Q04DX003 (ip), vehicle: Klucel (hydroxypropylcellulose) (HPC)): 75 % of control

COc1cccc2c1C(=O)c1c(O)c3c(c(O)c1C2=O)C[C@@](O)(C(=O)CO)C[C@@H]3OC1CC(N)CC(C)O1 (some centres not stated)
T/C (dose: 0.13 mg/kg/injection, schedule: Q04DX003 (ip), vehicle: water): 93 % of control
T/C [14]: 112 % of control
T/C [15]: 97 % of control
T/C (dose: 0.75 mg/kg/injection, schedule: Q04DX003 (ip), vehicle: water): 93 % of control
T/C (dose: 1.0 mg/kg/injection, schedule: Q04DX003 (ip), vehicle: water): 65 % of control
T/C (dose: 1.5 mg/kg/injection, schedule: Q04DX003 (ip), vehicle: water): 78 % of control
T/C (dose: 3.0 mg/kg/injection, schedule: Q04DX003 (ip), vehicle: water): 63 % of control

CSc1cc(=O)n2c3ccccc3c3ccnc1c32
T/C (dose: 10.0 mg/kg/injection, schedule: Q04DX003 (ip), vehicle: saline with Tween-80): 61 % of control
T/C (dose: 20.0 mg/kg/injection, schedule: Q04DX003 (ip), vehicle: saline with Tween-80): 50 % of control and 67 % of control
T/C (dose: 80.0 mg/kg/injection, schedule: Q04DX003 (ip), vehicle: saline with Tween-80): 27 % of control

O=C[C@@H](CO)O[C@H](C=O)n1cnc2c(=O)[nH]cnc21
T/C [13]: 29 % of control

CC(=O)OCC1OC(n2cc(CBr)nn2)C(OC(C)=O)C(OC(C)=O)C1OC(C)=O (configuration not stated)
T/C (dose: 25.0 mg/kg/injection, schedule: Q04DX003 (ip), vehicle: saline with Tween-80): 119 % of control
T/C (dose: 50.0 mg/kg/injection, schedule: Q04DX003 (ip), vehicle: saline with Tween-80): 150 % of control
T/C [8]: 57 % of control

N=c1ccn2c(n1)OC1C(O)C(CO)OC12 (configuration not stated)
T/C (dose: 200.0 mg/kg/injection, schedule: Q04DX003 (ip), vehicle: suspension in saline): 65 % of control
T/C (dose: 400.0 mg/kg/injection, schedule: Q04DX003 (ip), vehicle: suspension in saline): 65 % of control
T/C (dose: 800.0 mg/kg/injection, schedule: Q04DX003 (ip), vehicle: suspension in saline): 47 % of control

CN(C)c1nc(N(C)C)nc(N(C)C)n1
T/C [9]: 59 % of control
T/C (dose: 60.0 mg/kg/injection, schedule: Q01DX005 (ip), vehicle: Klucel (hydroxypropylcellulose) (HPC)): 15 % of control
T/C (dose: 60.0 mg/kg/injection, schedule: Q07DX005 (ip), vehicle: Klucel (hydroxypropylcellulose) (HPC)): 42 % of control
T/C [10]: 47 % of control
T/C (dose: 120.0 mg/kg/injection, schedule: Q01DX005 (ip), vehicle: Klucel (hydroxypropylcellulose) (HPC)): 1 % of control
T/C (dose: 120.0 mg/kg/injection, schedule: Q04DX005 (ip), vehicle: Klucel (hydroxypropylcellulose) (HPC)): -38 % of control
T/C (dose: 200.0 mg/kg/injection, schedule: Q04DX003 (ip), vehicle: Klucel (hydroxypropylcellulose) (HPC)): 1 % of control
T/C (dose: 240.0 mg/kg/injection, schedule: Q07DX005 (ip), vehicle: Klucel (hydroxypropylcellulose) (HPC)): -99 % of control
